# According to publication PMC7104723 (Cell Research, 2020):
# Where “and” joins values, the source holds several entries; their conditions need not be identical. Equal values may be shown once.
# Key:
# SARS-CoV-2 S protein = SARS-CoV-2 S protein (Severe acute respiratory syndrome coronavirus 2, UniProt P0DTC2); assay: cell-based; format: cell-based
# SARS-CoV S protein = SARS-CoV S protein (Severe acute respiratory syndrome coronavirus, UniProt P59594); assay: cell-based; format: cell-based
# MERS-CoV S protein = MERS-CoV S protein (Middle East respiratory syndrome-related coronavirus, UniProt K9N5Q8); assay: cell-based; format: cell-based
# HCoV-OC43 S protein = HCoV-OC43 S protein (Human coronavirus OC43, UniProt P36334); assay: cell-based; format: cell-based
# HCoV-OC43 = format: in vivo, mice
# SARS-2-HR1 = SARS-2-HR1 (Severe acute respiratory syndrome coronavirus 2, UniProt P0DTC2); format: binding, SARS-CoV-2
# SARS-CoV PsV = conditions: 72 h
# MERS-CoV PsV = conditions: 72 h
# HCoV-OC43 PsV = conditions: 72 h
# HCoV-OC43 S protein, sequence (P36334 14-1353 limits assumed): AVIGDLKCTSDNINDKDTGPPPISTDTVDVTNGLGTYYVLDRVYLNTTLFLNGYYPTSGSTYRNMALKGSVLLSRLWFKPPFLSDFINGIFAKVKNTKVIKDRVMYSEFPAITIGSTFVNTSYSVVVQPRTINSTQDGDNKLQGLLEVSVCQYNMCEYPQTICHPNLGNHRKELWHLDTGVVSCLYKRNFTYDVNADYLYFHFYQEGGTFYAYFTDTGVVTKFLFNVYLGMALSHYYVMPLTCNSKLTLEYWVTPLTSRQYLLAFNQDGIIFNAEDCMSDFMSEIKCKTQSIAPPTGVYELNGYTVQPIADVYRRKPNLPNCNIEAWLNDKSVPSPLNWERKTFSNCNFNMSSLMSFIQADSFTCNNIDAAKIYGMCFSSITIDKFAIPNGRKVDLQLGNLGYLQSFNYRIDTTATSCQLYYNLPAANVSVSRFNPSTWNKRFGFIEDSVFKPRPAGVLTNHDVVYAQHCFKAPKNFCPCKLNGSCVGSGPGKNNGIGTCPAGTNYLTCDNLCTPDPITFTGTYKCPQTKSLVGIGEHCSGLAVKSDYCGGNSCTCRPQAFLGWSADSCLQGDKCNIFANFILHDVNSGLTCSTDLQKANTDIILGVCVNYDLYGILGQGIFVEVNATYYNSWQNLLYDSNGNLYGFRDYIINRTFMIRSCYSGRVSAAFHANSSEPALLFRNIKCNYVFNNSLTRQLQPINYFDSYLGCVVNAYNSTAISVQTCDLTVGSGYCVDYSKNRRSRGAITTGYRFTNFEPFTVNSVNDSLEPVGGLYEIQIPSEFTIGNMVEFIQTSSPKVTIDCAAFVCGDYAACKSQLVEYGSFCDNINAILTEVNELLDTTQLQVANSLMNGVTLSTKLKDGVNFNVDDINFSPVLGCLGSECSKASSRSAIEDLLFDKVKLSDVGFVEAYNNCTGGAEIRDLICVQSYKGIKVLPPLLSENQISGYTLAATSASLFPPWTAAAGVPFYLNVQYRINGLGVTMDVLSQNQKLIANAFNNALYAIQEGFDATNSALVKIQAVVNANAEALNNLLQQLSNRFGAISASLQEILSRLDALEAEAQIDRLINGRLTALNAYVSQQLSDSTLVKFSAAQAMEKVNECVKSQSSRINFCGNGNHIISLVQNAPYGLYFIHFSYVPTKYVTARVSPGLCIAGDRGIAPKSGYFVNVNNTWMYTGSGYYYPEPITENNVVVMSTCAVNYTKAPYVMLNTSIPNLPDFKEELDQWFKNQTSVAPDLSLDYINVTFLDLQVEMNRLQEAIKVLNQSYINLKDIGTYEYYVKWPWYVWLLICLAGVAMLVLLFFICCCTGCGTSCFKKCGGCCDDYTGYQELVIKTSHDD
# MERS-CoV S protein, sequence (K9N5Q8 18-1353 limits assumed): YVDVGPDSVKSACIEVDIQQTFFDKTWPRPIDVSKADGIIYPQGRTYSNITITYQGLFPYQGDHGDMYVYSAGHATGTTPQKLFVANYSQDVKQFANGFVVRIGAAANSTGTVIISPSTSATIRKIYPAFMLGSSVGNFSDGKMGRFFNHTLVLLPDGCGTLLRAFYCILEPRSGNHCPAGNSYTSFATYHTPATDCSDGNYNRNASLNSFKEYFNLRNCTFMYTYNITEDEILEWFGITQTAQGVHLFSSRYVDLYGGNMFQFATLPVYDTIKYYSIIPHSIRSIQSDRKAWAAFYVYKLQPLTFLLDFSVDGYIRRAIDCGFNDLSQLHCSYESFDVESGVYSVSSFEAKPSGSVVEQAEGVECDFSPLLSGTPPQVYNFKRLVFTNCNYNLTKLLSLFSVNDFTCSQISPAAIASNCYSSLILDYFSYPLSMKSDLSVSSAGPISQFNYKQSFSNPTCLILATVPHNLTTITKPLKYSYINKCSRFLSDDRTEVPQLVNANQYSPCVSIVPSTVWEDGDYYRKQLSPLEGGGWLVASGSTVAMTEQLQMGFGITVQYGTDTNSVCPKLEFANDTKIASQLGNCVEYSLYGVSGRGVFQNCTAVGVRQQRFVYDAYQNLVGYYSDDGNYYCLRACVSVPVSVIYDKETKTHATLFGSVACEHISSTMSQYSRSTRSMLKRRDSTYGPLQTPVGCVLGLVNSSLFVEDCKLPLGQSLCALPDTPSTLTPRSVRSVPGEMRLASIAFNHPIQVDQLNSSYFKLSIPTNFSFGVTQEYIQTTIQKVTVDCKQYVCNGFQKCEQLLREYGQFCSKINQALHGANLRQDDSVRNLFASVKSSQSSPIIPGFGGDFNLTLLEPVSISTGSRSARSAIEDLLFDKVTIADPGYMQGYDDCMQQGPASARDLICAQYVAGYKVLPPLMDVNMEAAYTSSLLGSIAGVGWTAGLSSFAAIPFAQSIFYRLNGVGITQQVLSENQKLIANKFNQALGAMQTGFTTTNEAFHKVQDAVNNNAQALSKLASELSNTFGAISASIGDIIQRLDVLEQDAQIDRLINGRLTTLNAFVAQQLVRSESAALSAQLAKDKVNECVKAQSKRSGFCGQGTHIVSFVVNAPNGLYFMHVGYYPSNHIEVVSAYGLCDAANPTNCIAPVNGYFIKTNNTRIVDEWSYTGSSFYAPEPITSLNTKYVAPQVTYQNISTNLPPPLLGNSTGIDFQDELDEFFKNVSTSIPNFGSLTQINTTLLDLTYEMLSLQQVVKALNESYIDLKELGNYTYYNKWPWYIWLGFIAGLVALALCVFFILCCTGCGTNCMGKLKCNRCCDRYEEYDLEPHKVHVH
structure (smiles),measurement,setting,value
CC[C@H](C)[C@H](NC(=O)[C@H](C)NC(=O)[C@H](CCC(=O)O)NC(=O)[C@H](CCC(=O)O)NC(=O)[C@H](CC(C)C)NC(=O)[C@H](CCCCN)NC(=O)[C@H](CCCCN)NC(=O)[C@H](CCSC)NC(=O)[C@H](CCC(=O)O)NC(=O)[C@H](Cc1ccc(O)cc1)NC(=O)[C@H](CCC(=O)O)NC(=O)[C@H](CC(C)C)NC(=O)[C@H](CC(=O)O)NC(=O)[C@H](CC(C)C)NC(=O)[C@H](Cc1ccccc1)NC(=O)[C@@H](NC(=O)[C@@H](NC(=O)[C@H](CC(N)=O)NC(=O)[C@@H](NC(=O)[C@H](CCC(N)=O)NC(=O)[C@H](CC(=O)O)NC(=O)[C@H](CC(C)C)NC(=O)[C@@H](N)CO)[C@@H](C)CC)C(C)C)[C@@H](C)O)C(=O)N[C@@H](CCCCN)C(=O)N[C@@H](CCCCN)C(=O)N[C@@H](CC(C)C)C(=O)N[C@@H](CCC(=O)O)C(=O)N[C@@H](CCC(=O)O)C(=O)N[C@@H](CO)C(=O)N[C@@H](Cc1ccc(O)cc1)C(=O)N[C@H](C(=O)N[C@@H](CC(=O)O)C(=O)N[C@@H](CC(C)C)C(=O)N[C@@H](CCCCN)C(=O)N[C@@H](CCC(=O)O)C(=O)N[C@@H](CC(C)C)C(=O)NCC(=O)N[C@@H](CO)C(=O)NCC(=O)N[C@@H](CO)C(=O)NCC(=O)NCCOCCOCCOCCOCCC(=O)N[C@@H](CSCC(=O)O[C@H]1CC[C@@]2(C)C(=CC[C@H]3[C@@H]4CC[C@H]([C@H](C)CCCC(C)C)[C@@]4(C)CC[C@@H]32)C1)C(N)=O)[C@@H](C)CC [EK1C4],"Fold more potent than EK1C1, SARS-CoV-2 S-mediated cell–cell fusion",SARS-CoV-2 S protein,43 fold
same,"Fold more active than EK1, SARS-CoV S-mediated cell–cell fusion",SARS-CoV S protein,about 94 fold
same,"Fold more potent than EK1, MERS-S-mediated cell–cell fusion",MERS-CoV S protein,95 fold
same,"Fold more potent than EK1, OC43-S-mediated cell–cell fusion",HCoV-OC43 S protein,101 fold
same,"Viral titer in brain, Post-0.5 group","HCoV-OC43; 0.5 mg/kg intranasal 0.5 h after challenge, day 5, 5 mice, limit of detection lg2.0 TCID50/g",not detected
same,"Brain histopathology, Post-0.5 group","HCoV-OC43; 0.5 mg/kg intranasal 0.5 h after challenge, day 5, one mouse",no apparent histopathological changes
same,"Brain histopathology, Pre-0.5 group","HCoV-OC43; 0.5 mg/kg intranasal 0.5 h before challenge, day 5, one mouse",no apparent histopathological changes
same,"Viral titer in brain, Pre-0.5 group","HCoV-OC43; 0.5 mg/kg intranasal 0.5 h before challenge, day 5 after infection, 5 mice, limit of detection lg2.0 TCID50/g",not detected
same,"Mice with high viral titer detected in brain, Post-2 group","HCoV-OC43; 0.5 mg/kg intranasal 2 h after challenge, day 5, 5 mice, limit of detection lg2.0 TCID50/g",4 out of 5 mice
same,"Viral titer in brain, Pre-2 group","HCoV-OC43; 0.5 mg/kg intranasal 2 h before challenge, day 5, 5 mice, limit of detection lg2.0 TCID50/g",not detected
same,"Brain histopathology, Pre-2 group","HCoV-OC43; 0.5 mg/kg intranasal 2 h before challenge, day 5, one mouse",no apparent histopathological changes
same,"Viral titer in brain, Pre-4 group","HCoV-OC43; 0.5 mg/kg intranasal 4 h before challenge, day 5, 5 mice, limit of detection lg2.0 TCID50/g",not detected
same,"Brain histopathology, Pre-4 group","HCoV-OC43; 0.5 mg/kg intranasal 4 h before challenge, day 5, one mouse",no apparent histopathological changes
same,"Viral titer in brain, Pre-12 group","HCoV-OC43; 0.5 mg/kg intranasal 12 h before challenge, day 5, 5 mice, limit of detection lg2.0 TCID50/g",only moderate level of viral titer was detected in brain tissue in one of the 5 mice
same,"Brain histopathology, Pre-12 group","HCoV-OC43; 0.5 mg/kg intranasal 12 h before challenge, day 5, one mouse",no apparent histopathological changes
same,"Mice with high viral titer detected in brain, Pre-24 group","HCoV-OC43; 0.5 mg/kg intranasal 24 h before challenge, day 5, 5 mice, limit of detection lg2.0 TCID50/g",all 5 mice
same,"Survival rate, Post-0.5 group","HCoV-OC43; newborn mice, intranasal 0.5 mg/kg 0.5 h after HCoV-OC43 infection",100%
same,"Survival rate, Post-2 group","HCoV-OC43; newborn mice, intranasal 0.5 mg/kg 2 h after HCoV-OC43 infection",16.7%
same,"Final survival rate, Pre-0.5 group","HCoV-OC43; newborn mice, single intranasal dose 0.5 mg/kg 0.5 h before HCoV-OC43 challenge (100 TCID50), 14 days",100%
same,"Final survival rate, Pre-2 group","HCoV-OC43; newborn mice, single intranasal dose 0.5 mg/kg 2 h before HCoV-OC43 challenge (100 TCID50), 14 days",100%
same,"Final survival rate, Pre-4 group","HCoV-OC43; newborn mice, single intranasal dose 0.5 mg/kg 4 h before HCoV-OC43 challenge (100 TCID50), 14 days",100%
same,"Final survival rate, Pre-12 group","HCoV-OC43; newborn mice, single intranasal dose 0.5 mg/kg 12 h before HCoV-OC43 challenge (100 TCID50), 14 days",83%
same,"Final survival rate, Pre-24 group","HCoV-OC43; newborn mice, single intranasal dose 0.5 mg/kg 24 h before HCoV-OC43 challenge (100 TCID50), 14 days",0%
same,Stability and Tm of complex with SARS-2-HR1 compared with EK1 complex,SARS-2-HR1,higher stability and increased Tm values
same,"Fold more potent than EK1, SARS-CoV-2 PsV infection",SARS-CoV-2 PsV,~150 fold and 149 fold
same,IC50,"SARS-CoV-2 PsV; PsV, 72 h",15.8 nM
same,IC50,SARS-CoV PsV,11.7 nM
same,IC50,MERS-CoV PsV,11.1 nM
same,IC50,HCoV-OC43 PsV,37.7 nM
same,"Fold more active than EK1, HCoV-229E PsV infection",HCoV-229E PsV,about 319 fold
same,IC50,HCoV-229E PsV; 72 h,12.4 nM
same,"Fold more active than EK1, HCoV-NL63 PsV infection",HCoV-NL63 PsV,~99 fold
same,IC50,HCoV-NL63 PsV; 72 h,76.6 nM
same,"Fold more potent than EK1, WIV1 PsV infection",WIV1 PsV,175 fold
same,IC50,WIV1 PsV; 72 h,30.8 nM
same,"Fold more potent than EK1, Rs3367 PsV infection",Rs3367 PsV,89 fold
same,IC50,Rs3367 PsV; 72 h,66.9 nM
same,"Fold more active than EK1, live SARS-CoV-2 infection",live SARS-CoV-2,67 fold
same,IC50,"live SARS-CoV-2; live, 72 h",36.5 nM
same,"Fold more potent than EK1, live MERS-CoV infection",live MERS-CoV,190 fold
same,IC50,live MERS-CoV; 72 h,4.2 nM
same,"Fold more potent than EK1, live HCoV-OC43 infection",live HCoV-OC43,62 fold
same,IC50,live HCoV-OC43; 1 h,24.8 nM
same,"Fold more potent than EK1, live HCoV-229E infection",live HCoV-229E,42 fold
same,IC50,live HCoV-229E; 1 h,102 nM
same,"Fold more potent than EK1, live HCoV-NL63 infection",live HCoV-NL63,19 fold
same,IC50,live HCoV-NL63; 1 h,188 nM
